Data: the NIST ThermoML archive (doi:10.1021/je500696p)
± gives the expanded uncertainty stated by the source.

Key:
[1] = excess molar enthalpy (molar enthalpy of mixing); xn = mol fraction of the nth substance listed; conditions: 308.15 K, 100 kPa, Liquid, Calvet calorimetry
[2] = xn = mol fraction of the nth substance listed; conditions: 100 kPa, Liquid, Vibrating tube method, x1 = 1

CCCC[N+](C)(C)C.O=S(=O)([N-]S(=O)(=O)C(F)(F)F)C(F)(F)F [butyltrimethylammonium bis(trifluoromethylsulfonyl)imide] + C[S+](C)[O-]
excess molar enthalpy ([1]; x2 = 0.1288): -0.027 ± 0.00717 kcal/mol
excess molar enthalpy ([1]; x2 = 0.2255): -0.0416 ± 0.00717 kcal/mol
excess molar enthalpy ([1]; x2 = 0.2609): -0.0459 ± 0.00717 kcal/mol
excess molar enthalpy ([1]; x2 = 0.3095): -0.0511 ± 0.00717 kcal/mol
excess molar enthalpy ([1]; x2 = 0.3626): -0.0593 ± 0.00717 kcal/mol
excess molar enthalpy ([1]; x2 = 0.4382): -0.0629 ± 0.00717 kcal/mol
excess molar enthalpy ([1]; x2 = 0.4941): -0.0667 ± 0.00717 kcal/mol
excess molar enthalpy ([1]; x2 = 0.4983): -0.0638 ± 0.00717 kcal/mol
excess molar enthalpy ([1]; x2 = 0.5007): -0.0643 ± 0.00717 kcal/mol
excess molar enthalpy ([1]; x2 = 0.559): -0.0684 ± 0.00717 kcal/mol
excess molar enthalpy ([1]; x2 = 0.5642): -0.0679 ± 0.00717 kcal/mol
excess molar enthalpy ([1]; x2 = 0.5646): -0.0691 ± 0.00717 kcal/mol
excess molar enthalpy ([1]; x2 = 0.6132): -0.0629 ± 0.00717 kcal/mol
excess molar enthalpy ([1]; x2 = 0.6267): -0.0619 ± 0.00717 kcal/mol
excess molar enthalpy ([1]; x2 = 0.7533): -0.0399 ± 0.00717 kcal/mol
excess molar enthalpy ([1]; x2 = 0.7693): -0.037 ± 0.00717 kcal/mol
excess molar enthalpy ([1]; x2 = 0.8684): -0.0155 ± 0.00717 kcal/mol

CN(C)C=O [dimethylformamide] + CCCC[N+](C)(C)C.O=S(=O)([N-]S(=O)(=O)C(F)(F)F)C(F)(F)F
mass density ([2]; 293.15 K): 948.7 ± 2.8 kg/m3
mass density ([2]; 295.15 K): 946.8 ± 2.8 kg/m3
mass density ([2]; 298.15 K): 943.9 ± 2.8 kg/m3
mass density ([2]; 303.15 K): 939.1 ± 2.8 kg/m3
mass density ([2]; 308.15 K): 934.4 ± 2.8 kg/m3
mass density ([2]; 313.15 K): 929.6 ± 2.8 kg/m3
mass density ([2]; 318.15 K): 924.8 ± 2.8 kg/m3
mass density ([2]; 323.15 K): 920 ± 2.8 kg/m3
mass density ([2]; 328.15 K): 915.2 ± 2.7 kg/m3
mass density ([2]; 333.15 K): 910.4 ± 2.7 kg/m3

CCO [ethanol] + CCCC[N+](C)(C)C.O=S(=O)([N-]S(=O)(=O)C(F)(F)F)C(F)(F)F
mass density ([2]; 293.15 K): 789.6 ± 3.2 kg/m3
mass density ([2]; 295.15 K): 787.9 ± 3.2 kg/m3
mass density ([2]; 298.15 K): 785.3 ± 3.1 kg/m3
mass density ([2]; 303.15 K): 781 ± 3.1 kg/m3
mass density ([2]; 308.15 K): 776.7 ± 3.1 kg/m3
mass density ([2]; 313.15 K): 772.3 ± 3.1 kg/m3
mass density ([2]; 318.15 K): 767.9 ± 3.1 kg/m3
mass density ([2]; 323.15 K): 763.5 ± 3.1 kg/m3
mass density ([2]; 328.15 K): 758.9 ± 3 kg/m3
mass density ([2]; 333.15 K): 754.4 ± 3 kg/m3

CCCO [propan-1-ol] + CCCC[N+](C)(C)C.O=S(=O)([N-]S(=O)(=O)C(F)(F)F)C(F)(F)F
mass density ([2]; 293.15 K): 803.6 ± 2.4 kg/m3
mass density ([2]; 295.15 K): 802.1 ± 2.4 kg/m3
mass density ([2]; 298.15 K): 799.7 ± 2.4 kg/m3
mass density ([2]; 303.15 K): 795.6 ± 2.4 kg/m3
mass density ([2]; 308.15 K): 791.6 ± 2.4 kg/m3
mass density ([2]; 313.15 K): 787.5 ± 2.4 kg/m3
mass density ([2]; 318.15 K): 783.4 ± 2.4 kg/m3
mass density ([2]; 323.15 K): 779.2 ± 2.3 kg/m3
mass density ([2]; 328.15 K): 774.9 ± 2.3 kg/m3
mass density ([2]; 333.15 K): 770.6 ± 2.3 kg/m3
